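Five compound concentrations were applied to cells in 96-well plates for 48 hours; endpoints were derived by simple linear interpolation of the resulting dose-response curve. At the GI50, growth is halved. TGI is the concentration that stops growth completely.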
Columns and labels:
Experiment in all cases: DTP human tumour cell line panel, 48 h
[1] = system: HT29 colon
[2] = system: SF-295 CNS
[3] = system: SK-MEL-2 melanoma
[4] = system: SW-620 colon
[5] = system: CCRF-CEM leukemia
[6] = system: CAKI-1 renal
[7] = system: LOX IMVI melanoma
[8] = system: 786-0 renal
[9] = system: SNB-75 CNS
[10] = system: SR leukemia

SMILES	TGI [1] [µM]	TGI [2] [µM]	TGI [3] [µM]	TGI [4] [µM]	TGI [5] [µM]	TGI [6] [µM]	TGI [7] [µM]	TGI [8] [µM]	TGI [9] [µM]	GI50 [1] [µM]	GI50 [2] [µM]	GI50 [4] [µM]	GI50 [5] [µM]	GI50 [10] [µM]	TGI [10] [µM]	GI50 [6] [µM]	GI50 [8] [µM]	GI50 [9] [µM]	GI50 [3] [µM]	GI50 [7] [µM]
O=C(O)CSc1n[nH]c(-c2ccco2)n1	> 100	> 100	> 100	> 100	> 100	> 100	> 100	> 100	> 100											
O=C1CCC(=O)N1Sc1ccccc1		> 100	> 100	> 100	> 100	> 100	> 100	> 100	> 100											
COc1ccc(-c2cc(/C=C/C(=O)c3ccc(N)cc3)[nH]n2)cc1	8.11	13.1		5.41	4.91	11.1		5.69	11.4	2.75	3.09	1.69	1.32	0.799	6.09	1.32	2.12	2.25		
O=NNc1ccc(S(=O)(=O)c2ccc3ccccc3c2)cn1	> 100	> 100	> 100	> 100	> 100	> 100		> 100	> 100						> 100					
COc1ccccc1C(=O)N(Cc1ccccc1)c1ccc(Cl)c(C(=O)OC(C)C)c1	> 74	> 100	40.5	> 100	> 100	71.1	> 100	> 100	> 77.5											
COc1ccc(-c2csc(Nc3cccc(-c4csc(C)n4)c3)n2)cc1	> 50	> 11.5	> 27	> 50		> 14	11.8	> 34.8		2.57	0.68	0.441		0.0878	0.27	1.15	2.14		4.7	0.389
CCn1c(-c2nonc2N)nc2cnc(Oc3cccc(NC(=O)c4ccc(N(C)C)cc4)c3)cc21	> 25	> 25	> 25	> 25	> 25	> 25	> 25	> 25	> 25	> 25	12	> 25	1.82			0.688	21.6	0.106	> 25	> 25
C=C1CC[C@H]2C(C)=CC[C@H]3C(=C)C(=O)O[C@@H]3[C@@H]12	> 100	> 100	> 100	> 100	> 100	> 100	> 100	> 100							> 100					
O=[N+]([O-])/C=C/c1ccc(Cl)cc1[N+](=O)[O-]		21.6	39.7		8.85	9.09		4.62	15.9		6.72		1.12	1.68	> 100	2.16	2.42	3.79	12.3	
OCC(O)C(O)C(O)C(O)c1nnc2c(-c3ccccc3)nc3ccccc3n12 (configuration not stated)	> 100	> 100	> 100	> 100	> 100	> 100	> 100	> 100	> 100	86.3	> 100	> 100	> 100			> 100	> 100	> 100	> 100	51.5
COc1cc(-c2nn(-c3cccc(NC(=O)CCN4CCN(c5ccccc5)CC4)c3)cc2-c2ccncc2)ccc1Cl	> 100	18	6.85	> 100	> 100		5.47	4.23	> 100	2.66	2.41	4.09	3.38				1.83	4.13	2.45	2.02
O=CN1N=C(c2cccc(Nc3ccnc4cc(Cl)ccc34)c2)CC1c1ccc(Cl)cc1 (configuration not stated)	3.65	8.12	> 100	> 100	> 100	> 100	10.3	> 100		0.477	1.06	0.557	2.34	0.367	2.13	0.954	4.73		2.05	1.56
CN(C)CCN1CCc2c([nH]c3ccccc23)C1c1cccnc1 (configuration not stated)	> 100	> 100		> 100	> 100	> 100		> 100	> 100						> 100					
O=C1OC(=O)C([Se]c2ccccc2)=C1[Se]c1ccccc1	> 100	> 100		> 100	> 100	> 100	> 100	> 100	> 100						> 100					
N#Cc1cc(S(=O)(=O)Nc2nc3cc(Cl)ccc3o2)c(SCc2ccccc2)cc1Cl	31	28	24.8	23.9	27.1	35.1	26.3	29.1		17.3	14.5	11.7	14.1	15.2	28.5	18.5	15.7		12.4	13.5
OCC(O)C(O)C(O)c1nn(-c2ccc(F)cc2)c2nc3cc(Cl)c(Cl)cc3nc12 (configuration not stated)	> 100	> 100	39.2	> 100	40	55.6	76.5	81.9	13.2											
CC1(C)OC(=O)C(=C2CCC(C(=O)Nc3cccc(C(F)(F)F)c3)N2)C(=O)O1 (configuration not stated)	> 100	> 100	> 100	> 100	> 100	26.6	> 100	> 100	> 100											
COc1cccc(/C=N\NC(=O)C(C)SC(C)C(=O)N/N=C/c2cccc(OC)c2)c1 (configuration not stated)	> 100	> 88.6	> 62.6	> 100	> 93.5	> 80.8		31.6	33.2						> 100					
